{"source": "patent US20100184676A1", "about": "“USE OF A PEPTIDE AS A THERAPEUTIC AGENT” (priority 2007, published 2010)", "key": {"CEM-SS cells": {"system": "CEM-SS cells", "experiment": "Cytotoxicity (MTS cell viability) in HIV-1 experiments", "conditions": "peptide 10 micrograms per ml"}, "HIV-1IIIB": {"system": "HIV-1IIIB", "experiment": "HIV-1 antiviral assay (CPE reduction, MTS) in CEM-SS cells", "format": "cell-based", "conditions": "peptide 10 micrograms per ml, 6 days post-infection"}, "HepG2-2.2.15 cells": {"system": "HepG2-2.2.15 cells", "experiment": "Cell viability (dye uptake) in HBV assay", "format": "cell-based", "conditions": "peptide 10 micrograms per ml", "experimental": "(§1) HepG2-2.2.15 cells were plated in 96-well microtiter plates. After 16-24 hours the confluent monolayer of HepG2-2.2.15 cells was washed and the medium was replaced with complete medium containing test peptide—10 micrograms per ml—in duplicate. Lamivudine (3TC) was used as the positive control, while media alone was added to the cells as a negative control (virus control). Three days later the culture medium was replaced with fresh medium containing the peptide. Six days following the initial administration of the peptide, the cell culture supernatants was collected, treated with pronase and DNAse and then used in a real-time quantitative TaqMan PCR assay. The PCR-amplified HBV DNA was detected in real-time by monitoring increases in fluorescence signals that result from the exonucleolytic degradation of a quenched fluorescence probe molecule that hybridizes to the amplified HBV DNA. For each PCR amplification, a standard curve was simultaneously generated using dilutions of purified HBV DNA. Antiviral activity was calculated from the reduction in HBV DNA levels (% virus control). A novel dye uptake assay was then employed to measure cell viability, which is used to calculate toxicity (% cell control)."}, "TNF alpha": {"system": "TNF alpha", "experiment": "TNF alpha production assay (LPS-stimulated macrophages, ELISA)", "format": "cell-based, human", "conditions": "macrophages from PBMC, peptide 10 micrograms per ml, lipopolysaccharide 200 ng/ml, overnight", "source_text": "Not stimulated macrophages served as negative background control."}, "[1]": {"system": "Primary Human endothelial cells (HUVEC)", "experiment": "Endothelial cell migration assay", "format": "cell-based", "conditions": "peptide 10 micrograms per ml, 22 hours"}, "in vitro [2]": {"experiment": "in vitro", "conditions": "human, CEM-SS cells"}, "Streptococcus pneumoniae": {"system": "Streptococcus pneumoniae", "format": "cell-based", "conditions": "5 micrograms per ml"}, "Pseudomonas aeruginosa": {"system": "Pseudomonas aeruginosa", "format": "cell-based", "conditions": "5 micrograms per ml"}, "[3]": {"system": "hepatitis B virus (HBV) ayw strain", "experiment": "HBV experimental assay system (secreted HBV DNA, TaqMan PCR)", "format": "cell-based", "conditions": "peptide 10 micrograms per ml; six days; HBV DNA in supernatant", "experimental": "HepG2-2.2.15 is a stable cell line containing the hepatitis B virus (HBV) ayw strain genome (ATCC Cat. No. CRL-11997). Antiviral compounds blocking any late step of viral replication such as transcription, translation, pregenome encapsidation, reverse transcription, particle assembly and release can be identified and characterized using this cell line.\nas §1, with “Lamivudine (3TC) was used as the positive control, while media alone was added to the cells as a negative control (virus control).” left out, “A novel dye uptake assay was then employed to measure cell viability, which is used to calculate toxicity (% cell control).” left out"}, "MRSA": {"system": "MRSA", "conditions": "5 micrograms per ml"}, "RAW 264.7 cells": {"system": "RAW 264.7 cells", "experiment": "Phagocytosis assay (Fluorescein-labeled Escherichia coli)", "format": "cell-based, mouse", "conditions": "peptide 10 micrograms per ml, flow cytometry"}, "A549 cells [4]": {"system": "A549 cells", "experiment": "Apoptosis prevention assay (C2 ceramide, Annexin-5)", "format": "cell-based, human", "conditions": "A549 cells pretreated 30 min, peptide 10 micrograms per ml"}, "HCMV strain AD169": {"system": "HCMV strain AD169", "experiment": "HCMV plaque reduction assay in MRC-5 cells", "conditions": "HCMV AD169 in MRC-5 cells; peptide 10 micrograms per ml; 7-10 days"}, "spleen cells": {"system": "spleen cells", "experiment": "Th1/Th2 cytokine profiling assay", "format": "cell-based, Balb/c mice", "conditions": "Ovalbumin restimulation; peptide 10 micrograms per ml; 72 hours"}, "in vitro [5]": {"experiment": "in vitro", "conditions": "human, MRC-5 cells"}, "A549 cells [6]": {"system": "A549 cells", "experiment": "Apoptosis induction assay (Annexin-5)", "format": "cell-based, human", "conditions": "24 hours"}, "A549 cells [7]": {"system": "A549 cells", "experiment": "Propidium iodide cell cycle assay", "format": "cell-based, human", "conditions": "24 hours, peptide 10 micrograms per ml, FACS", "source_text": "Disregulation of the cell cycle components may lead to tumor formation."}, "[8]": {"experiment": "Cell viability (dye uptake) in HBV assay", "format": "cell-based", "conditions": "human, HepG2-2.2.15 cells, peptide 10 micrograms per ml", "experimental": "as §1"}, "[9]": {"system": "Human Peripheral Blood Mononuclear Cells (PBMC)", "experiment": "T cell proliferation assay (PHA, 3H-thymidine)", "format": "cell-based", "conditions": "peptide 10 micrograms per ml, 3H-thymidine incorporation"}, "[10]": {"system": "Human Peripheral Blood Mononuclear Cells (PBMC)", "experiment": "B cell proliferation assay (SAC plus Interleukin-2, 3H-thymidine)", "format": "cell-based", "conditions": "peptide 10 micrograms per ml, 3H-thymidine incorporation"}, "HUVEC": {"system": "HUVEC", "experiment": "Endothelial tube formation assay", "format": "cell-based, human", "conditions": "peptide 10 micrograms per ml, 20 hours, average tubule length", "source_text": "Positive control was vehicle only."}, "MRC-5 cells": {"system": "MRC-5 cells", "conditions": "human, 6 days"}}}
{"molecule": "Cc1cn([C@H]2C[C@H](N=[N+]=[N-])[C@@H](CO)O2)c(=O)[nH]c1=O", "note": "[AZT]", "values": [{"measurement": "% Cell viability", "setting": "CEM-SS cells", "result": 97, "unit": "%"}, {"measurement": "% CPE reduction in HIV-1 infected CEM-SS cells", "setting": "HIV-1IIIB", "result": 99, "unit": "%"}]}
{"molecule": "CC(C)(C)NC(=O)[C@@H]1CN(Cc2cccnc2)CCN1C[C@@H](O)C[C@@H](Cc1ccccc1)C(=O)N[C@H]1c2ccccc2C[C@H]1O", "note": "[Indinavir, indinavir]", "values": [{"measurement": "% CPE reduction in HIV-1 infected CEM-SS cells", "setting": "HIV-1IIIB", "result": 100, "unit": "%"}]}
{"molecule": "Nc1ccn([C@@H]2CS[C@H](CO)O2)c(=O)n1", "note": "[3TC, Lamivudine, reference compound]", "values": [{"measurement": "% Cell viability", "setting": "HepG2-2.2.15 cells", "result": 95.8, "unit": "%"}]}
{"molecule": "CC[C@H](C)[C@H](NC(=O)[C@H](CCC(N)=O)NC(=O)[C@H](Cc1c[nH]cn1)NC(=O)[C@H](C)NC(=O)[C@H](CC(C)C)NC(=O)[C@H](CCCCN)NC(=O)[C@H](CCC(N)=O)NC(=O)[C@@H](NC(=O)[C@@H](NC(=O)[C@@H]1CSSC[C@H](NC(=O)CNC(=O)[C@H](Cc2ccccc2)NC(=O)[C@H](CO)NC(=O)[C@H](CCCNC(=N)N)NC(=O)[C@H](CC(C)C)NC(=O)CNC(=O)[C@H](CCC(N)=O)NC(=O)[C@H](Cc2ccccc2)NC(=O)[C@H](CC(N)=O)NC(=O)[C@H](CC(N)=O)NC(=O)[C@H](CCSC)NC(=O)[C@H](CO)NC(=O)[C@H](CCC(N)=O)NC(=O)[C@H](CCCNC(=N)N)NC(=O)[C@@H](N)Cc2ccc(O)cc2)C(=O)N[C@@H](CCCNC(=N)N)C(=O)N[C@@H](Cc2ccccc2)C(=O)NCC(=O)N[C@@H]([C@@H](C)O)C(=O)N1)[C@@H](C)O)C(C)C)C(=O)N[C@@H](Cc1ccc(O)cc1)C(=O)N[C@@H](CCC(N)=O)C(=O)N[C@@H](Cc1ccccc1)C(=O)N[C@H](C(=O)N[C@@H](CC(=O)O)C(=O)N[C@@H](CCCCN)C(=O)N[C@@H](CC(=O)O)C(=O)N[C@@H](CCCCN)C(=O)N[C@@H](CC(=O)O)C(=O)N[C@@H](CC(N)=O)C(=O)N[C@H](C(=O)N[C@@H](C)C(=O)N1CCC[C@H]1C(=O)N[C@@H](CCCNC(=N)N)C(=O)N[C@@H](CO)C(=O)N[C@@H](CCCCN)C(=O)N[C@H](C(=O)N[C@@H](CO)C(=O)N1CCC[C@H]1C(=O)N[C@@H](CCC(N)=O)C(=O)NCC(=O)N[C@@H](Cc1ccc(O)cc1)C(N)=O)[C@@H](C)CC)C(C)C)[C@@H](C)O", "note": "[Adrenomedullin]", "values": [{"measurement": "% of LPS induction", "setting": "TNF alpha", "result": 100.9, "unit": "%"}, {"measurement": "% inhibition of migration", "setting": "[1]", "result": "−34", "unit": "%"}, {"measurement": "viability at 10 micrograms per ml", "setting": "in vitro [2]", "result": 92.9, "unit": "%"}, {"measurement": "% inhibition", "setting": "Streptococcus pneumoniae", "result": 0.0, "unit": "%"}, {"measurement": "% inhibition", "setting": "Pseudomonas aeruginosa", "result": 0.0, "unit": "%"}, {"measurement": "% inhibition of HBV replication in HEP G2 cells", "setting": "[3]", "result": 0.0, "unit": "%"}, {"measurement": "% inhibition", "setting": "MRSA", "result": 0.0, "unit": "%"}, {"measurement": "% of control phagocytosis", "setting": "RAW 264.7 cells", "result": 108.8, "unit": "%"}, {"measurement": "% prevention of ceramide induced apoptosis", "setting": "A549 cells [4]", "result": 0.0, "unit": "%"}, {"measurement": "% plaque reduction", "setting": "HCMV strain AD169", "result": 0.0, "unit": "%"}, {"measurement": "IFNγ spleen cells; TH1 response (% of control)", "setting": "spleen cells", "result": "24.5 % of control"}, {"measurement": "IL-2 spleen cells (% of control)", "setting": "spleen cells", "result": "0.0 % of control"}, {"measurement": "IL-4 spleen cells; TH2 response (% of control)", "setting": "spleen cells", "result": "0.0 % of control"}, {"measurement": "IL-5 spleen cells; TH2 response (% of control)", "setting": "spleen cells", "result": "28.1 % of control"}, {"measurement": "TNF-a spleen cells; TH1 response (% of control)", "setting": "spleen cells", "result": "66.7 % of control"}, {"measurement": "viability at 144 h", "setting": "in vitro [5]", "result": 100, "unit": "%"}, {"measurement": "% CPE reduction in HIV-1 infected CEM-SS cells", "setting": "HIV-1IIIB", "result": 0.0, "unit": "%"}, {"measurement": "% of induction", "setting": "A549 cells [6]", "result": 1.5, "unit": "%"}, {"measurement": "Cell cycle analysis G0/G1", "setting": "A549 cells [7]", "result": 57.8}, {"measurement": "Cell cycle analysis G2/M", "setting": "A549 cells [7]", "result": 9.5}, {"measurement": "Cell cycle analysis S", "setting": "A549 cells [7]", "result": 32.7}, {"measurement": "viability at 144 h, 10 micrograms per ml", "setting": "[8]", "result": 100, "unit": "%"}, {"measurement": "% of PHA induced control", "setting": "[9]", "result": 107.1, "unit": "%"}, {"measurement": "% of SAC/IL2 induced control", "setting": "[10]", "result": 111.0, "unit": "%"}, {"measurement": "% inhibition of tube formation", "setting": "HUVEC", "result": 26, "unit": "%"}]}
{"molecule": "Nc1nc(O)c2ncn(COC(CO)CO)c2n1", "note": "[Ganciclovir, reference compound]", "values": [{"measurement": "% plaque reduction", "setting": "HCMV strain AD169", "result": 100, "unit": "%"}, {"measurement": "% Cell viability", "setting": "MRC-5 cells", "result": 100, "unit": "%"}]}
